In ChEMBL document CHEMBL1201862, “PubChem BioAssay data set” (2004):
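Five compound concentrations were applied to cells in 96-well plates for 48 hours; endpoints were derived by simple linear interpolation of the resulting dose-response curve. At the GI50, growth is halved.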 Active and inactive are the calls of the source. No stated cut-off is given here; in the data, active = GI50 up to about 1.1 µM and inactive = higher.

Key:
Assay in all cases: growth of human tumour cells (NCI), 48 h
HCT-15 = system: HCT-15
LOX IMVI = system: LOX IMVI
OVCAR-8 = system: OVCAR-8
NCI-H23 = system: NCI-H23
Hs-578T = system: Hs-578T
786-0 = system: 786-0
SNB-19 = system: SNB-19
KM12 = system: KM12
Malme-3M = system: Malme-3M
COLO 205 = system: COLO 205
BT-549 = system: BT-549
SK-MEL-28 = system: SK-MEL-28
MDA-MB-435 = system: MDA-MB-435
HCC 2998 = system: HCC 2998
UO-31 = system: UO-31
UACC-62 = system: UACC-62
HT-29 = system: HT-29
PC-3 = system: PC-3
OVCAR-3 = system: OVCAR-3
OVCAR-5 = system: OVCAR-5

Compound | GI50 (HCT-15) [µM] | GI50 (LOX IMVI) | GI50 (OVCAR-8) | GI50 (NCI-H23) | GI50 (Hs-578T) | GI50 (786-0) | GI50 (SNB-19) | GI50 (KM12) | GI50 (Malme-3M) | GI50 (COLO 205) | GI50 (BT-549) | GI50 (SK-MEL-28) | GI50 (MDA-MB-435) | GI50 (HCC 2998) | GI50 (UO-31) | GI50 (UACC-62) | GI50 (HT-29) | GI50 (PC-3) | GI50 (OVCAR-3) | GI50 (OVCAR-5)
CC(=O)OCC1OC(OC2CC3C(C)(C)C(OC(C)=O)CC[C@]3(C)C3CCC45CC4(CCC5[C@@H](C)C[C@H](O)C(O)C(C)(C)O)[C@]23C)C(O)C(O)C1O (stereo not given in full) | > 10 | > 10 µM (inactive) | > 10 µM (inactive) | > 10 µM (inactive) | > 10 µM (inactive) | > 10 µM (inactive) | > 10 µM (inactive) | > 10 µM (inactive) | > 10 µM (inactive) | > 10 µM (inactive) | > 10 µM (inactive) | > 10 µM (inactive) | > 10 µM (inactive) | > 10 µM (inactive) | > 10 µM (inactive) | > 10 µM (inactive) | > 10 µM (inactive) | > 10 µM (inactive) | > 10 µM (inactive) | > 10 µM (inactive)
CSc1c(C#N)c2n(c3ccccc13)c1ccccc1[n+]2C | 33.4 | 33.1 µM (inactive) | 24 µM (inactive) | 25.5 µM (inactive) | 30.5 µM (inactive) | 32.7 µM (inactive) | > 10 µM (inactive) | 28.5 µM (inactive) | 16 µM (inactive) | 15 µM (inactive) | 19.7 µM (inactive) | 23.9 µM (inactive) | 20.9 µM (inactive) | 27.9 µM (inactive) | 18.5 µM (inactive) | 16.9 µM (inactive) | 21 µM (inactive) | 26.7 µM (inactive) | 37.4 µM (inactive) | 31.4 µM (inactive)
CCCCCCCCCCCC(=O)N(CCCCCCCCC)CC(O)C(O)C(OC1OC(CO)C(O)C(O)C1O)C(O)CO (stereo not given) | 16.9 | 20.9 µM (inactive) | 20.6 µM (inactive) | 17.6 µM (inactive) | 35.3 µM (inactive) | 17.5 µM (inactive) | 20.6 µM (inactive) | 16.7 µM (inactive) | 19.5 µM (inactive) | 20.7 µM (inactive) | 19.4 µM (inactive) | 19.2 µM (inactive) | 17.7 µM (inactive) | 16.9 µM (inactive) | 17 µM (inactive) | 17.7 µM (inactive) | 19.2 µM (inactive) | 19.2 µM (inactive) | 20.2 µM (inactive) | 22.7 µM (inactive)
ClC1=C(Cl)C(Cl)(Cl)SS1 | > 7.82 | > 4.15 µM (inactive) | > 6.41 µM (inactive) | > 10 µM (inactive) | > 10 µM (inactive) | > 4.41 µM (inactive) | > 10 µM (inactive) | > 10 µM (inactive) | 3.15 µM (inactive) | 1.98 µM (inactive) | > 8.73 µM (inactive) | > 10 µM (inactive) | > 10 µM (inactive) | > 10 µM (inactive) | > 4.47 µM (inactive) | > 10 µM (inactive) | > 10 µM (inactive) | > 10 µM (inactive) | > 5.56 µM (inactive) | > 10 µM (inactive)
c1ccc(C(c2cccc3c2ccc2ccccc23)C(c2ccccc2)c2cccc3c2ccc2ccccc23)cc1 (stereo not given) | > 100 | > 100 µM (inactive) | > 100 µM (inactive) | > 100 µM (inactive) | > 100 µM (inactive) | > 100 µM (inactive) | > 100 µM (inactive) | > 100 µM (inactive) | > 100 µM (inactive) | > 100 µM (inactive) | > 100 µM (inactive) | > 100 µM (inactive) | > 100 µM (inactive) | > 100 µM (inactive) | > 100 µM (inactive) | > 100 µM (inactive) | > 100 µM (inactive) | > 100 µM (inactive) | > 100 µM (inactive) | > 100 µM (inactive)
O=S(=O)(O)c1ccc(Nc2ccnc3cc(Cl)ccc23)cc1 | > 100 | > 100 µM (inactive) | > 100 µM (inactive) | > 100 µM (inactive) | > 100 µM (inactive) | > 100 µM (inactive) | > 100 µM (inactive) | > 100 µM (inactive) | > 100 µM (inactive) | > 100 µM (inactive) | > 100 µM (inactive) | > 100 µM (inactive) | > 100 µM (inactive) | > 100 µM (inactive) | > 100 µM (inactive) | > 100 µM (inactive) | > 100 µM (inactive) | > 100 µM (inactive) | > 100 µM (inactive) | > 100 µM (inactive)
COc1cccc(NC(=O)CC(=O)N2N=C(C)C(/N=N/c3ccc(C(=O)O)cc3)C2=O)c1 (stereo not given) | > 100 | > 100 µM (inactive) | > 100 µM (inactive) | > 100 µM (inactive) | > 100 µM (inactive) | > 100 µM (inactive) | > 100 µM (inactive) | > 100 µM (inactive) | 56.6 µM (inactive) | > 100 µM (inactive) | > 100 µM (inactive) | > 100 µM (inactive) | > 100 µM (inactive) | > 100 µM (inactive) | > 100 µM (inactive) | > 100 µM (inactive) | 93.8 µM (inactive) | > 100 µM (inactive) | > 100 µM (inactive) | > 100 µM (inactive)
O=NN1CCNC1Cc1ccccc1 (stereo not given) | > 100 | > 100 µM (inactive) | > 100 µM (inactive) | 72.1 µM (inactive) | > 100 µM (inactive) | 52.8 µM (inactive) | 35.3 µM (inactive) | > 100 µM (inactive) | > 100 µM (inactive) | > 100 µM (inactive) | > 100 µM (inactive) | > 100 µM (inactive) | > 100 µM (inactive) | > 100 µM (inactive) | 43.7 µM (inactive) | 46.8 µM (inactive) | > 100 µM (inactive) | > 100 µM (inactive) | > 100 µM (inactive) | > 100 µM (inactive)
CN(C)/C=N/S(=O)(=O)c1nn2c(C=O)c(-c3cc4ccccc4oc3=O)nc2s1 | 3.4 | 2.65 µM (inactive) | 3.72 µM (inactive) | 9.68 µM (inactive) | 15.6 µM (inactive) | 1.92 µM (inactive) | 39.4 µM (inactive) | 12.1 µM (inactive) | 1.95 µM (inactive) | 1.91 µM (inactive) | 8.65 µM (inactive) | 2.38 µM (inactive) | 5.25 µM (inactive) | 19.5 µM (inactive) | 1.51 µM (inactive) | 7.28 µM (inactive) | 0.918 µM (active) | 12.4 µM (inactive) | 3.08 µM (inactive) | 14.6 µM (inactive)
COc1ccc2oc(S(=O)(=O)N3CC(CCl)c4ccc(N)cc43)cc2c1 (stereo not given) | 0.023 | 0.0471 µM (active) | 0.152 µM (active) | 0.401 µM (active) | 0.0161 µM (active) | 0.0264 µM (active) | 0.0608 µM (active) | 0.0228 µM (active) | 0.043 µM (active) | 2.11 µM (inactive) | 2.31 µM (inactive) | 54.1 µM (inactive) | 0.0113 µM (active) | 0.118 µM (active) | 1.93 µM (inactive) | 0.0246 µM (active) | 2.25 µM (inactive) | 0.0299 µM (active) | 0.0395 µM (active) | > 19.3 µM (inactive)
CCOC(=O)NC(Nc1ccc(C(=O)O)cc1)(C(F)(F)F)C(F)(F)F | > 100 | > 100 µM (inactive) | > 100 µM (inactive) | > 100 µM (inactive) | > 100 µM (inactive) | > 100 µM (inactive) | > 100 µM (inactive) | > 100 µM (inactive) | > 100 µM (inactive) | > 100 µM (inactive) | > 100 µM (inactive) | > 100 µM (inactive) | > 100 µM (inactive) | > 100 µM (inactive) | > 100 µM (inactive) | > 100 µM (inactive) | > 100 µM (inactive) | > 100 µM (inactive) | > 100 µM (inactive) | > 100 µM (inactive)
Cc1nnc(N)s/c1=N/O | > 100 | > 100 µM (inactive) | > 100 µM (inactive) | > 100 µM (inactive) | > 100 µM (inactive) | > 100 µM (inactive) | > 100 µM (inactive) | > 100 µM (inactive) | > 100 µM (inactive) | > 100 µM (inactive) | > 100 µM (inactive) | > 100 µM (inactive) | > 100 µM (inactive) | > 100 µM (inactive) | > 100 µM (inactive) | > 100 µM (inactive) | > 100 µM (inactive) | > 100 µM (inactive) | > 100 µM (inactive) | > 100 µM (inactive)
COc1ccc(C(=O)CCN(C)C)c2ccccc12 | 21.4 | 18.9 µM (inactive) | 19.5 µM (inactive) | 20.8 µM (inactive) | 23.6 µM (inactive) | 5.93 µM (inactive) | > 93.5 µM (inactive) | 19.5 µM (inactive) | 17.8 µM (inactive) | 18.6 µM (inactive) | 19.3 µM (inactive) | 24.8 µM (inactive) | 19.5 µM (inactive) | 18 µM (inactive) | 21.5 µM (inactive) | > 41.4 µM (inactive) | 25.7 µM (inactive) | 17.6 µM (inactive) | 16.3 µM (inactive) | 55.6 µM (inactive)
